Test results taken from patent US6486198B1, “Compounds and methods for the treatment of post traumatic stress disorder” (priority 1999, dated 2002).

Test system: DSM-IV PTSD criterion B symptoms of nightmares and intrusions (intrusive recollections/flashbacks)
Assay: Naturalistic add-on/monotherapy topiramate trial in chronic PTSD patients; patient self-report of partial/full response of nightmares and intrusions (LOCF)
Format: in vivo, human
From the text: Thirty five (35) patients meeting DSM-IV criteria for chronic post-traumatic stress disorder (PTSD) were selected for a study of the effects of topiramate administration. […] The group with hallucinatory PTSD experienced auditory and/or visual hallucinations containing content specifically associated with identified traumatic events. Whether these were PTSD “flashbacks” or psychotic experiences were at times difficult to ascertain due to fluctuations in reality testing the hallucinations. For this reason, prior to being screened for PTSD, some patients had received psychiatric diagnoses of psychotic disorders despite meeting full diagnostic criteria for PTSD.
Topiramate was added naturalistically to existing pharmacotherapy (see Table 1 for concomitant medications at start of trial), starting at 25 mglday and increasing whenever possible by 25 to 50 mg/day every 3 to 4 days to clinical response. Target symptoms were DSM-IV PTSD criterion B symptoms of nightmares (N =24) and intrusions (intrusive recollections/flashbacks, N=35) involving re-experiencing of traumas. Definitions of improvement, as assessed from patient self-report, included “partial response” as “definite reduction in intensity and frequency of nightmares or intrusions”, and “full response” as “complete cessation of nightmares and intrusions for a sustained period”. Following the seminal observations, in order to systematically identify responsive symptoms, the next 17 patients completed a self-report scale, the PTSD Checklist—Civilian Version (PCL-C)15, at baseline and at 4 weeks after starting topiramate. The patients were instructed to complete the PCL-C for experiences corresponding to traumas consistent with DSM-IV criterion A for PTSD. Paired ttest scores for the PCL-C were calculated with Jandel SigmaStat® v. 2.0.
Response assessment, summarized in Table 4, used the Last Observation Carried Forward (LOCF) method, which includes all patients who entered the trial and their last reported condition while under active treatment. Overall, topiramate suppressed nightmares in 79% of patients ([…]; 5/28 partially), and intrusions in 86% (22/35 fully; 8/35 partially). Globally (i.e., in terms of suppression of both nightmares and intrusions), 22 patients (63%) reported a full response and 8 patients (23%) a partial response. Five patients discontinued without response, 1 at 5 days, and the remaining 4 after 4 weeks. The non-hallucinatory subgroup achieved a higher response rate (full: 79%; full/partial: 89%). All full responses occurred in the non-hallucinatory subgroup. Benefit usually occurred within 2 to 3 days of reaching an effective dose. A full response to topiramate was reported for 10 patients within 1 week of treatment, and for 3 additional patients by the third week of treatment.

[1] = All Patients (N = 35), both nightmares and intrusions
[2] = All Patients (N = 35), both nightmares and intrusions, listed as topiramate
[3] = All Patients (N = 35), either nightmares or intrusions
[4] = All Patients (N = 35), either nightmares or intrusions, listed as topiramate
[5] = All Patients (N = 35), listed as topiramate
[6] = All Patients (N = 35), partial + full response
[7] = All Patients (N = 35), partial + full response, listed as topiramate
[8] = Non-Hallucinatory PTSD, Bipolar Disorder (N = 8)
[9] = Non-Hallucinatory PTSD, Bipolar Disorder (N = 8), listed as topiramate
[10] = Non-Hallucinatory PTSD, Non-Bipolar Disorder (N = 20)
[11] = Non-Hallucinatory PTSD, Non-Bipolar Disorder (N = 20), listed as topiramate
[12] = Patients with Hallucinatory PTSD (N = 7)
[13] = Patients with Hallucinatory PTSD (N = 7), listed as topiramate
[14] = Patients with Non-Hallucinatory PTSD, Total (N + 28)
[15] = Patients with Non-Hallucinatory PTSD, Total (N + 28), listed as topiramate

## CC1(C)O[C@@H]2[C@@H](CO[C@@]3(COS(N)(=O)=O)OC(C)(C)O[C@@H]23)O1 [Topiramate, 2,3:4,5-bis-O-(1-methylethylidene)-β-D-fructopyranose sulfamate]
75 mg/day or less
  Share of partial responders with response at a dosage of 75 mg/day or less: 95%
100 mg/day or less
  Share of full responders with response at a dosage of 100 mg/day or less: 91%
1 at 5 days, remaining 4 after 4 weeks
  Patients discontinued without response: Five
All Patients (N = 35)
  Dosage of topiramate, Full response, mean ± SD: 78.6 mg/day
  Dosage of topiramate, Full response, median: (50.0) mg/day
  Dosage of topiramate, Partial response (threshold dosage), mean ± SD: 41.7 mg/day
  Dosage of topiramate, Partial response, median: (25.0) mg/day
  Suppression of intrusions, Full (number of patients): 22
  Suppression of intrusions, Partial (number of patients): 8
  Suppression of nightmares, Full (number of patients): 14
  Suppression of nightmares, Partial (number of patients): 5
[1]
  Time to onset of response, Full, mean ± SD: 35.3 days
  Time to onset of response, Full, median: (8.0) days
[2]
  Time to onset of response, Full, mean ± SD: 35 ± 48.6 days
  Time to onset of response, Full, median: 8.0 days
[3]
  Time to onset of response, Partial, mean ± SD: 10.9 days
  Time to onset of response, Partial, median: (4.0) days
[4]
  Time to onset of response, Partial, mean ± SD: 11 ± 13.1 days
  Time to onset of response, Partial, median: 4.0 days
[5]
  Dosage of topiramate, Full response, mean ± SD: 79 ± 113.8 mg/day
  Dosage of topiramate, Full response, median: 50.0 mg/day
  Dosage of topiramate, Partial response (threshold dosage), mean ± SD: 42 ± 31.7 mg/day
  Dosage of topiramate, Partial response, median: 25.0 mg/day
[6]
  Suppression of intrusions (N = 35): 86%
  Suppression of nightmares (N = 24): 79%
[7]
  Suppression of intrusions (N = 35): 86%
  Suppression of nightmares (N = 24): 79%
[8]
  Dosage of topiramate, Full response, mean ± SD: 154.2 mg/day
  Dosage of topiramate, Full response, median: (37.5) mg/day
  Dosage of topiramate, Partial response (threshold dosage), mean ± SD: 58.3 ± 14.4 mg/day
  Dosage of topiramate, Partial response, median: (50.0) mg/day
  Suppression of intrusions (N = 35): 88% (7/8)
  Suppression of intrusions, Full (number of patients): 6
  Suppression of intrusions, Partial (number of patients): 1
  Suppression of nightmares (N = 24): 83% (5/6)
  Suppression of nightmares, Full (number of patients): 4
  Suppression of nightmares, Partial (number of patients): 1
  Time to onset of response, Full, mean ± SD: 43.3 ± 62.5 days
  Time to onset of response, Full, median: (6.0) days
  Time to onset of response, Partial, mean ± SD: 17.3 ± 13.5 days
  Time to onset of response, Partial, median: (17.0) days
[9]
  Dosage of topiramate, Full response, mean ± SD: 154 ± 200.9 mg/day
  Dosage of topiramate, Full response, median: 37.5 mg/day
  Dosage of topiramate, Partial response (threshold dosage), mean ± SD: 58 ± 14.4 mg/day
  Dosage of topiramate, Partial response, median: 50.0 mg/day
[10]
  Dosage of topiramate, Full response, mean ± SD: 48.3 mg/day
  Dosage of topiramate, Full response, median: (50.0) mg/day
  Dosage of topiramate, Partial response (threshold dosage), mean ± SD: 26.9 mg/day
  Dosage of topiramate, Partial response, median: (25.0) mg/day
  Suppression of intrusions (N = 35): 90%
  Suppression of intrusions, Full (number of patients): 16
  Suppression of intrusions, Partial (number of patients): 2
  Suppression of nightmares (N = 24): 85%
  Suppression of nightmares, Full (number of patients): 10
  Suppression of nightmares, Partial (number of patients): 1
  Time to onset of response, Full, mean ± SD: 32.1 days
  Time to onset of response, Full, median: (10.0) days
  Time to onset of response, Partial, mean ± SD: 8.6 days
  Time to onset of response, Partial, median: (3.5) days
[11]
  Dosage of topiramate, Full response, mean ± SD: 48 ± 25.4 mg/day
  Dosage of topiramate, Full response, median: 50.0 mg/day
  Dosage of topiramate, Partial response (threshold dosage), mean ± SD: 30 ± 11.2 mg/day
  Dosage of topiramate, Partial response, median: 25.0 mg/day
[12]
  Dosage of topiramate, Partial response (threshold dosage), mean ± SD: 70.0 ± 51.2 mg/day
  Dosage of topiramate, Partial response, median: (75.0) mg/day
  Suppression of intrusions (N = 35): 71% (5/7)
  Suppression of intrusions, Full (number of patients): 0
  Suppression of intrusions, Partial (number of patients): 5
  Suppression of nightmares (N = 24): 60% (3/5)
  Suppression of nightmares, Full (number of patients): 0
  Suppression of nightmares, Partial (number of patients): 3
  Time to onset of response, Partial, mean ± SD: 12.6 ± 15.7 days
  Time to onset of response, Partial, median: (7.0) days
[13]
  Dosage of topiramate, Partial response (threshold dosage), mean ± SD: 70.0 ± 51.2 mg/day
  Dosage of topiramate, Partial response, median: 75.0 mg/day
  Time to onset of response, Partial, mean ± SD: 13 ± 15.7 days
  Time to onset of response, Partial, median: 7.0 days
[14]
  Dosage of topiramate, Full response, mean ± SD: 78.6 mg/day
  Dosage of topiramate, Full response, median: (50.0) mg/day
  Dosage of topiramate, Partial response (threshold dosage), mean ± SD: 32.8 mg/day
  Dosage of topiramate, Partial response, median: (25.0) mg/day
  Suppression of intrusions (N = 35): 89%
  Suppression of intrusions, Full (number of patients): 22
  Suppression of intrusions, Partial (number of patients): 3
  Suppression of nightmares (N = 24): 84%
  Suppression of nightmares, Full (number of patients): 14
  Suppression of nightmares, Partial (number of patients): 2
  Time to onset of response, Full, mean ± SD: 35.3 days
  Time to onset of response, Full, median: (8.0) days
  Time to onset of response, Partial, mean ± SD: 10.3 days
  Time to onset of response, Partial, median: (4.0) days
[15]
  Time to onset of response, Partial, mean ± SD: 10 ± 12.7 days
  Time to onset of response, Partial, median: 4.0 days
All 35 patients
  Global full response rate (suppression of both nightmares and intrusions): 63%
  Global full response, number of patients: 22 patients
  Global partial response rate: 23%
  Global partial response, number of patients: 8 patients
All patients
  Response rate, full/partial: 86%
By the third week
  Additional patients reporting a full response by the third week of treatment: 3 patients
Hallucinatory group
  Response rate, full: 0%
  Response rate, partial: 83%
non-hallucinatory subgroup
  Response rate, full: 79%
  Response rate, full/partial: 89%
Within 1 week of treatment
  Patients reporting a full response within 1 week of treatment: 10 patients
